Reference: ChEMBL document CHEMBL4699579, “A Peptidyl Inhibitor that Blocks Calcineurin-NFAT Interaction and Prevents Acute Lung Injury” (J Med Chem, 2020)
Active and inactive are the calls of the source. No cut-off for these calls is given here. Positions of bridges follow the written chain, without caps; N, C: chain ends. Non-standard residues stand in square brackets, D forms with d. Residues, ends and D or L forms follow the SMILES beside them. Chains are numbered I, II in the order given. *: point of attachment. 2Nal = N[C@@H](Cc1ccc2ccccc2c1)C(=O)O; Val(3-OH) = CC(C)(O)[C@H](N)C(=O)O; Tle = CC(C)(C)[C@H](N)C(=O)O; X1 = O=C(c1ccnc(Cl)c1Cl)*; AEEA = NCCOCCOCC(=O)O

How the values were obtained:
[1] = Stability in mouse hepatocytes at 2 uM incubated up to 90 mins by LC/MS/MS analysis; assay type: ADME, cell-based, Hepatocyte
[2] = Drug distribution in BALB/c mouse lung at […], sc using compound labelled with cyanine-5 measured after 24 hrs by fluorescence based assay; assay type: ADME, organism-based; conditions: dose 2.4 mg/kg, read-out: Drug uptake
[3] = Drug distribution in BALB/c mouse liver at 0.6 mg/kg, iv using compound labelled with cyanine-5 measured after 24 hrs by fluorescence based assay; assay type: ADME, organism-based; conditions: in vivo
[4] = Drug distribution in BALB/c mouse neutrophils at 0.6 mg/kg, iv using compound labelled with cyanine-5 measured after 24 hrs by flow cytometry; assay type: ADME, organism-based, Neutrophil; conditions: in vivo
Mus musculus [5] = experiment: Anti-inflammatory activity in BALB/c mouse model of LPS-induced ALI assessed as reduction in LPS-induced TNFalpha in lung at 5 mg/kg, iv pre-treated 4 hrs before LPS stimulation for 16 hrs; assay type: functional; conditions: time 20 hrs
[6] = Drug distribution in BALB/c mouse neutrophils at […], sc using compound labelled with cyanine-5 measured after 24 hrs by flow cytometry; assay type: ADME, organism-based, Neutrophil; conditions: in vivo, dose 2.4 mg/kg
[7] = Drug distribution in BALB/c mouse spleen at […], ip using compound labelled with cyanine-5 measured after 24 hrs by fluorescence based assay; assay type: ADME, organism-based; conditions: in vivo, dose 2.4 mg/kg
[8] = Drug distribution in BALB/c mouse pancreas at 0.6 mg/kg, iv using compound labelled with cyanine-5 measured after 24 hrs by fluorescence based assay; assay type: ADME, organism-based; conditions: read-out: Drug uptake
[9] = Drug distribution in BALB/c mouse kidney at […], ip using compound labelled with cyanine-5 measured after 24 hrs by fluorescence based assay; assay type: ADME, organism-based; conditions: in vivo, dose 2.4 mg/kg
[10] = Drug distribution in BALB/c mouse lymph nodes at […], sc using compound labelled with cyanine-5 measured after 24 hrs by fluorescence based assay; assay type: ADME, organism-based, Lymph node; conditions: dose 2.4 mg/kg, read-out: Drug uptake
[11] = Drug metabolism in BALB/c mouse liver at 5 mg/kg, iv after 8 hrs by LC-MS/MS analysis; assay type: ADME, organism-based; conditions: in vivo
Mus musculus [12] = experiment: Anti-inflammatory activity in BALB/c mouse model of LPS-induced ALI assessed as reduction in LPS-induced BALF protein levels at 5 mg/kg, iv pre-treated 4 hrs before LPS stimulation for 16 hrs; assay type: functional, organism-based; conditions: time 20.0 hrs
[13] = Drug distribution in BALB/c mouse plasma at […], ip using compound labelled with cyanine-5 measured after 24 hrs by fluorescence based assay; assay type: ADME, organism-based; conditions: in vivo, dose 2.4 mg/kg
Mus musculus [14] = experiment: Anti-inflammatory activity in BALB/c mouse model of LPS-induced ALI assessed as reduction in LPS-induced lung wet-to-dry ratios at 3 mg/kg dosed via intranasal instillation pre-treated 2 hrs before LPS stimulation for 6 hrs; assay type: functional, organism-based; conditions: time 8.0 hrs
[15] = Stability in simulated gastric fluid at 5 uM incubated for 2 hrs by LC/MS/MS analysis
[16] = Drug distribution in BALB/c mouse kidney at 0.6 mg/kg, iv using compound labelled with cyanine-5 measured after 24 hrs by fluorescence based assay; assay type: ADME, organism-based; conditions: in vivo
[17] = Drug distribution in BALB/c mouse muscle at […], sc using compound labelled with cyanine-5 measured after 24 hrs by fluorescence based assay; assay type: ADME, organism-based, Muscle tissue; conditions: in vivo, dose 2.4 mg/kg
[18] = Drug distribution in BALB/c mouse lymph nodes at […], ip using compound labelled with cyanine-5 measured after 24 hrs by fluorescence based assay; assay type: ADME, organism-based, Lymph node; conditions: dose 2.4 mg/kg, read-out: Drug uptake
[19] = Drug distribution in BALB/c mouse heart at […], ip using compound labelled with cyanine-5 measured after 24 hrs by fluorescence based assay; assay type: ADME, organism-based; conditions: dose 2.4 mg/kg, read-out: Drug uptake
[20] = Drug distribution in BALB/c mouse neutrophils at […], ip using compound labelled with cyanine-5 measured after 24 hrs by flow cytometry; assay type: ADME, organism-based, Neutrophil; conditions: in vivo, dose 2.4 mg/kg
Mus musculus [21] = experiment: Anti-inflammatory activity in BALB/c mouse model of LPS-induced ALI assessed as reduction in LPS-induced TNFalpha in BALF at 3 mg/kg dosed via intranasal instillation pre-treated 2 hrs before LPS stimulation for 6 hrs and measured at 24 hrs; assay type: functional, organism-based
[22] = Drug distribution in BALB/c mouse liver at […], sc using compound labelled with cyanine-5 measured after 24 hrs by fluorescence based assay; assay type: ADME, organism-based; conditions: in vivo, dose 2.4 mg/kg
[23] = Drug distribution in BALB/c mouse monocytes at […], sc using compound labelled with cyanine-5 measured after 24 hrs by flow cytometry; assay type: ADME, organism-based, Monocyte; conditions: in vivo, dose 2.4 mg/kg
[24] = Drug metabolism in BALB/c mouse kidney at 5 mg/kg, iv after 8 hrs by LC-MS/MS analysis; assay type: ADME, organism-based; conditions: in vivo
Mus musculus [25] = experiment: Anti-inflammatory activity in BALB/c mouse model of LPS-induced ALI assessed as reduction in LPS-induced TNFalpha in BALF at 0.3 to 3 mg/kg dosed via intranasal instillation pre-treated 2 hrs before LPS stimulation for 6 hrs; assay type: functional
[26] = Drug distribution in BALB/c mouse pancreas at […], ip using compound labelled with cyanine-5 measured after 24 hrs by fluorescence based assay; assay type: ADME, organism-based; conditions: dose 2.4 mg/kg, read-out: Drug uptake
[27] = Drug distribution in BALB/c mouse heart at […], sc using compound labelled with cyanine-5 measured after 24 hrs by fluorescence based assay; assay type: ADME, organism-based; conditions: dose 2.4 mg/kg, read-out: Drug uptake
[28] = Drug concentration in BALB/c mouse brain at 5 mg/kg, iv after 8 hrs by LC-MS/MS analysis; assay type: ADME, organism-based; conditions: in vivo
[29] = Drug distribution in BALB/c mouse Non-T and B lymphocytes at 0.6 mg/kg, iv using compound labelled with cyanine-5 measured after 24 hrs by flow cytometry; assay type: ADME, organism-based, Lymphocyte; conditions: in vivo
[30] = Stability in human HCT-116 cells spheroids assessed as compound degradation at 5 uM incubated for 24 hrs by MALDI-TOF-TOF mass spectrometry; assay type: ADME, cell-based; conditions: hct-116, 24 h
[31] = Drug metabolism in BALB/c mouse plasma at 5 mg/kg, iv after 8 hrs by LC-MS/MS analysis; assay type: ADME, organism-based; conditions: in vivo
Mus musculus [32] = experiment: Anti-inflammatory activity in BALB/c mouse model of LPS-induced ALI assessed as reduction in LPS-induced BALF protein levels at 3 mg/kg dosed via intranasal instillation pre-treated 2 hrs before LPS stimulation for 6 hrs and measured at 24 hrs; assay type: functional, organism-based
[33] = Drug distribution in BALB/c mouse lung at 0.6 mg/kg, iv using compound labelled with cyanine-5 measured after 24 hrs by fluorescence based assay; assay type: ADME, organism-based; conditions: read-out: Drug uptake
Mus musculus [34] = experiment: Anti-inflammatory activity in BALB/c mouse model of LPS-induced ALI assessed as reduction in LPS-induced IL6 level in BALF at 0.3 to 3 mg/kg dosed via intranasal instillation pre-treated 2 hrs before LPS stimulation for 6 hrs; assay type: functional
[35] = Drug distribution in BALB/c mouse muscle at […], ip using compound labelled with cyanine-5 measured after 24 hrs by fluorescence based assay; assay type: ADME, organism-based, Muscle tissue; conditions: in vivo, dose 2.4 mg/kg
[36] = Drug distribution in BALB/c mouse muscle at 0.6 mg/kg, iv using compound labelled with cyanine-5 measured after 24 hrs by fluorescence based assay; assay type: ADME, organism-based, Muscle tissue; conditions: in vivo
Mus musculus [37] = experiment: Anti-inflammatory activity in BALB/c mouse model of LPS-induced ALI assessed as reduction in LPS-induced IL6 in BALF at 5 mg/kg, iv pre-treated 4 hrs before LPS stimulation for 16 hrs; assay type: functional, organism-based; conditions: time 20.0 hrs
[38] = Stability in mouse liver microsomes assessed as compound degradation at 100 uM after 1 hr in presence of NADPH by LC-MS/MS analysis; assay type: ADME, Microsome; conditions: read-out: Drug degradation
[39] = dose mg/kg 0.3-3, time 8 hrs, read-out: MED

Stabilty [1]: Stable
concentration at 24 h [2]: > 50 nM
Drug uptake [3]: Active
Drug uptake [4]: Active
Drug uptake [6]: Active
Drug uptake [7]: Active
concentration at 24 h [8]: > 50 nM
Drug uptake [9]: Active
concentration at 24 h [10]: > 50 nM
Drug metabolism [11]: Metabolite_Detected
Drug uptake [13]: Not Active
Drug uptake [16]: Active
Drug uptake [17]: Not Active
concentration at 24 h [18]: > 50 nM
concentration at 24 h [19]: > 50 nM
Drug uptake [20]: Active
Drug uptake [22]: Active
Drug uptake [23]: Active
Drug metabolism [24]: Metabolite_Detected
concentration at 24 h [26]: > 50 nM
concentration at 24 h [27]: > 50 nM
Drug uptake [28]: Not Active
Drug uptake [29]: Active
Stabilty [30]: Stable
Drug metabolism [31]: Metabolite_Detected
concentration at 24 h [33]: > 50 nM
Drug uptake [35]: Not Active
Drug uptake [36]: Not Active
metabolised at 1 h, 100 µM [38]: ≤ 25%
Structure (SMILES): CC[C@H](C)[C@H](NC(=O)[C@@H](NC(=O)c1ccnc(Cl)c1Cl)C(C)(C)C)C(=O)N[C@H](C(=O)N[C@H](C(=O)N[C@H](C(=O)N[C@@H](CCC(N)=O)C(=O)N[C@@H](Cc1c[nH]cn1)C(=O)N[C@H](CC(C)C)C(=O)N[C@@H](CO)C(=O)NCCOCCOCC(=O)N[C@@H](CCCCNC(=O)CC[C@@H]1NC(=O)[C@@H](CCCNC(=N)N)NC(=O)[C@H](CCCNC(=N)N)NC(=O)[C@@H](CCCNC(=N)N)NC(=O)[C@H](CCCNC(=N)N)NC(=O)[C@H](Cc2ccc3ccccc3c2)NC(=O)[C@@H](Cc2ccccc2)NC1=O)C(N)=O)[C@@H](C)O)[C@@H](C)CC)C(C)(C)O (I: X1-[Tle]I[Val(3-OH)]ITQH[dL]S[AEEA]K-NH2 / II: cyclo([2Nal]R[dR]R[dR]E[dF]); amide I:11-II:6)
inhibition in vivo at 5 mg/kg (Mus musculus [5]): 100%
Activity (Mus musculus [12]): Active
Activity (Mus musculus [14]): Active
Stability [15]: Stable
Activity (Mus musculus [21]): inactive
Activity (Mus musculus [25]; dose mg/kg 0.3-3, time 8.0 hrs): Dose-dependent effect
minimal effective dose (Mus musculus [25]; [39]): 1 mg/kg
Activity (Mus musculus [32]): inactive
Activity (Mus musculus [34]; dose mg/kg 0.3-3, time 8.0 hrs): Dose-dependent effect
minimal effective dose (Mus musculus [34]; [39]): 1 mg/kg
Activity (Mus musculus [37]): Active
